According to the supplement of paper PMC4862054:

What was measured:
Conditions in all cases: incubation time: 72 h
BT-474 [1] = assay: normalised response (% of control), CellTiter-Glo; higher = more viable cells (100 = DMSO, 0 = benzethonium chloride kill control)
Summary of the method: (§1)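 CellTox Green fluorescence (485/520 nm) and, after 10 min at room temperature, CellTiter-Glo luminescence were read from breast cancer cell lines incubated 72 h in 384-well plates. Cells were seeded as 20 µl suspension onto compound at 5 concentrations in 10-fold steps over a 10,000-fold range chosen per compound. Each plate was normalised to 0.1 % DMSO (100) and a positive kill control (0). Values are normalised signals, one per concentration.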

BT-549 [2] = assay: as above
Summary of the method: as §1

CAL-120 [3] = assay: as above
Summary of the method: as §1

CAL-148 [4] = assay: as above
Summary of the method: as §1

CAL-51 [5] = assay: as above
Summary of the method: as §1

CAL-85-1 [6] = assay: as above
Summary of the method: as §1

DU-4475 [7] = assay: as above
Summary of the method: as §1

HCC1143 [8] = assay: as above
Summary of the method: as §1

HCC1599 [9] = assay: as above
Summary of the method: as §1

HCC1937 [10] = assay: as above
Summary of the method: as §1

HDQ-P1 [11] = assay: as above
Summary of the method: as §1

Hs578T [12] = assay: as above
Summary of the method: as §1

MCF-10A = assay: as above
Summary of the method: as §1

MDA-MB-231 [13] = assay: as above
Summary of the method: as §1

MDA-MB-436 [14] = assay: as above
Summary of the method: as §1

MDA-MB-453 [15] = assay: as above
Summary of the method: as §1

MDA-MB-468 [16] = assay: as above
Summary of the method: as §1

MFM-223 [17] = assay: as above
Summary of the method: as §1

SK-BR-3 [18] = assay: as above
Summary of the method: as §1

BT-474 [19] = assay: normalised viability (% of control), CellTiter-Blue; higher = more viable cells (100 = DMSO, 0 = benzethonium chloride kill control)
Summary of the method: (§2)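 Compound dissolved in 5 µl medium was pre-loaded into 384-well plates, and breast cancer cell lines in 20 µl suspension were seeded on top and incubated 72 h. After adding 2.5 µl CellTiter-Blue reagent for 2 h at 37 °C, fluorescence was read at 560/590 nm. Plates were normalised to vehicle (100) and a positive kill control (0), with Z'-factor quality control. Each value is normalised viability at a single listed concentration from the series.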

BT-549 [20] = assay: as above
Summary of the method: as §2

CAL-120 [21] = assay: as above
Summary of the method: as §2

CAL-148 [22] = assay: as above
Summary of the method: as §2

CAL-51 [23] = assay: as above
Summary of the method: as §2

CAL-85-1 [24] = assay: as above
Summary of the method: as §2

DU-4475 [25] = assay: as above
Summary of the method: as §2

HCC1143 [26] = assay: as above
Summary of the method: as §2

HCC1599 [27] = assay: as above
Summary of the method: as §2

HCC1937 [28] = assay: as above
Summary of the method: as §2

HDQ-P1 [29] = assay: as above
Summary of the method: as §2

Hs578T [30] = assay: as above
Summary of the method: as §2

MDA-MB-231 [31] = assay: as above
Summary of the method: as §2

MDA-MB-436 [32] = assay: as above
Summary of the method: as §2

MDA-MB-453 [33] = assay: as above
Summary of the method: as §2

MDA-MB-468 [34] = assay: as above
Summary of the method: as §2

MFM-223 [35] = assay: as above
Summary of the method: as §2

SK-BR-3 [36] = assay: as above
Summary of the method: as §2

Cn1c(=O)c(F)c(Nc2ccc(I)cc2F)c2c(=O)n(C[C@@H](O)CO)cnc21 [TAK-733] (0.1 nM) showed a normalised response (BT-474 [1]) of 103%, a normalised response (BT-549 [2]) of 91.8% and a normalised response (CAL-120 [3]) of 98%. For the same compound, the normalised response (CAL-148 [4]) was 104%, the normalised response (CAL-51 [5]) was 74% and the normalised response (CAL-85-1 [6]) was 96.6%. It also gave a normalised response (DU-4475 [7]) of 99.4%, a normalised response (HCC1143 [8]) of 102% and a normalised response (HCC1599 [9]) of 94.3%. The normalised response (HCC1937 [10]) was 100%, the normalised response (HDQ-P1 [11]) was 97.1% and the normalised response (Hs578T [12]) was 101%. The normalised response (MCF-10A) was 114%, the normalised response (MDA-MB-231 [13]) was 105% and the normalised response (MDA-MB-436 [14]) was 96.2%. The normalised response (MDA-MB-453 [15]) was 115%, the normalised response (MDA-MB-468 [16]) was 102% and the normalised response (MFM-223 [17]) was 108%. The normalised response (SK-BR-3 [18]) was 111%, the normalised viability (BT-474 [19]) was 68.7% and the normalised viability (BT-549 [20]) was 101%. For the same compound, the normalised viability (CAL-120 [21]) was 87.1%, the normalised viability (CAL-148 [22]) was 105% and the normalised viability (CAL-51 [23]) was 101%. For the same compound, the normalised viability (CAL-85-1 [24]) was 90.7%, the normalised viability (DU-4475 [25]) was 112% and the normalised viability (HCC1143 [26]) was 101%. It also gave a normalised viability (HCC1599 [27]) of 73.2%, a normalised viability (HCC1937 [28]) of 88.7% and a normalised viability (HDQ-P1 [29]) of 120%. The normalised viability (Hs578T [30]) was 128%, the normalised viability (MDA-MB-231 [31]) was 105% and the normalised viability (MDA-MB-436 [32]) was 105%. For the same compound, the normalised viability (MDA-MB-453 [33]) was 111%, the normalised viability (MDA-MB-468 [34]) was 95.8% and the normalised viability (MFM-223 [35]) was 99.9%. For the same compound, the normalised viability (SK-BR-3 [36]) was 97.9%.

O=c1[nH]cc(F)c(=O)[nH]1 [Fluorouracil] (1 nM) showed a normalised response (BT-474 [1]) of 99.5%, a normalised response (BT-549 [2]) of 107% and a normalised response (CAL-120 [3]) of 108%. For the same compound, the normalised response (CAL-148 [4]) was 105%, the normalised response (CAL-51 [5]) was 124% and the normalised response (CAL-85-1 [6]) was 105%. It also gave a normalised response (DU-4475 [7]) of 100%, a normalised response (HCC1143 [8]) of 102% and a normalised response (HCC1599 [9]) of 95.8%. It also gave a normalised response (HCC1937 [10]) of 95.1%, a normalised response (HDQ-P1 [11]) of 105% and a normalised response (Hs578T [12]) of 106%. It also gave a normalised response (MCF-10A) of 113%, a normalised response (MDA-MB-231 [13]) of 106% and a normalised response (MDA-MB-436 [14]) of 119%. It also gave a normalised response (MDA-MB-453 [15]) of 110%, a normalised response (MDA-MB-468 [16]) of 97.2% and a normalised response (MFM-223 [17]) of 110%. It also gave a normalised response (SK-BR-3 [18]) of 108%, a normalised viability (BT-474 [19]) of 107% and a normalised viability (BT-549 [20]) of 114%. It also gave a normalised viability (CAL-120 [21]) of 103%, a normalised viability (CAL-148 [22]) of 109% and a normalised viability (CAL-51 [23]) of 100%. The normalised viability (CAL-85-1 [24]) was 106%, the normalised viability (DU-4475 [25]) was 107% and the normalised viability (HCC1143 [26]) was 102%. The normalised viability (HCC1599 [27]) was 80.1%, the normalised viability (HCC1937 [28]) was 90.6% and the normalised viability (HDQ-P1 [29]) was 110%. For the same compound, the normalised viability (Hs578T [30]) was 122%, the normalised viability (MDA-MB-231 [31]) was 112% and the normalised viability (MDA-MB-436 [32]) was 94.8%. It also gave a normalised viability (MDA-MB-453 [33]) of 115%, a normalised viability (MDA-MB-468 [34]) of 113% and a normalised viability (MFM-223 [35]) of 106%. For the same compound, the normalised viability (SK-BR-3 [36]) was 103%.

CC(C)C[C@H](NC(=O)[C@H](Cc1ccccc1)NC(=O)c1cnccn1)B(O)O [Bortezomib] (0.1 nM) gave a normalised response (BT-474 [1]) of 98.6%, a normalised response (BT-549 [2]) of 91.5% and a normalised response (CAL-120 [3]) of 102%. It also gave a normalised response (CAL-148 [4]) of 95.7%, a normalised response (CAL-51 [5]) of 90.9% and a normalised response (CAL-85-1 [6]) of 95.6%. It also gave a normalised response (DU-4475 [7]) of 103%, a normalised response (HCC1143 [8]) of 100% and a normalised response (HCC1599 [9]) of 95.9%. The normalised response (HCC1937 [10]) was 96.2%, the normalised response (HDQ-P1 [11]) was 93.6% and the normalised response (Hs578T [12]) was 104%. The normalised response (MCF-10A) was 113%, the normalised response (MDA-MB-231 [13]) was 101% and the normalised response (MDA-MB-436 [14]) was 93.4%. For the same compound, the normalised response (MDA-MB-453 [15]) was 103%, the normalised response (MDA-MB-468 [16]) was 89.8% and the normalised response (MFM-223 [17]) was 103%. It also gave a normalised response (SK-BR-3 [18]) of 101%, a normalised viability (BT-474 [19]) of 75.1% and a normalised viability (BT-549 [20]) of 82.3%. The normalised viability (CAL-120 [21]) was 98.8%, the normalised viability (CAL-148 [22]) was 104% and the normalised viability (CAL-51 [23]) was 97.3%. It also gave a normalised viability (CAL-85-1 [24]) of 104%, a normalised viability (DU-4475 [25]) of 129% and a normalised viability (HCC1143 [26]) of 98.8%. It also gave a normalised viability (HCC1599 [27]) of 122%, a normalised viability (HCC1937 [28]) of 82.9% and a normalised viability (HDQ-P1 [29]) of 92.2%. The normalised viability (Hs578T [30]) was 96.4%, the normalised viability (MDA-MB-231 [31]) was 91.9% and the normalised viability (MDA-MB-436 [32]) was 103%. It also gave a normalised viability (MDA-MB-453 [33]) of 101%, a normalised viability (MDA-MB-468 [34]) of 91.8% and a normalised viability (MFM-223 [35]) of 101%. The normalised viability (SK-BR-3 [36]) was 88.8%.

In the case of COc1ncc(-c2ccc3nccc(-c4ccnnc4)c3c2)cc1NS(=O)(=O)c1ccc(F)cc1F (0.1 nM), the normalised response (BT-474 [1]) was 101%, the normalised response (BT-549 [2]) was 101% and the normalised response (CAL-120 [3]) was 98.4%. For the same compound, the normalised response (CAL-148 [4]) was 97.9%, the normalised response (CAL-51 [5]) was 112% and the normalised response (CAL-85-1 [6]) was 98.1%. For the same compound, the normalised response (DU-4475 [7]) was 99.8%, the normalised response (HCC1143 [8]) was 106% and the normalised response (HCC1599 [9]) was 92.1%. For the same compound, the normalised response (HCC1937 [10]) was 98.2%, the normalised response (HDQ-P1 [11]) was 99.8% and the normalised response (Hs578T [12]) was 103%. The normalised response (MCF-10A) was 120%, the normalised response (MDA-MB-231 [13]) was 104% and the normalised response (MDA-MB-436 [14]) was 97.7%. The normalised response (MDA-MB-453 [15]) was 125%, the normalised response (MDA-MB-468 [16]) was 100% and the normalised response (MFM-223 [17]) was 111%. For the same compound, the normalised response (SK-BR-3 [18]) was 108%, the normalised viability (BT-474 [19]) was 115% and the normalised viability (BT-549 [20]) was 108%. It also gave a normalised viability (CAL-120 [21]) of 81%, a normalised viability (CAL-148 [22]) of 99.6% and a normalised viability (CAL-51 [23]) of 93.7%. The normalised viability (CAL-85-1 [24]) was 90.2%, the normalised viability (DU-4475 [25]) was 108% and the normalised viability (HCC1143 [26]) was 89.1%. For the same compound, the normalised viability (HCC1599 [27]) was 83.8%, the normalised viability (HCC1937 [28]) was 100% and the normalised viability (HDQ-P1 [29]) was 103%. The normalised viability (Hs578T [30]) was 112%, the normalised viability (MDA-MB-231 [31]) was 92% and the normalised viability (MDA-MB-436 [32]) was 113%. For the same compound, the normalised viability (MDA-MB-453 [33]) was 94.3%, the normalised viability (MDA-MB-468 [34]) was 101% and the normalised viability (MFM-223 [35]) was 91.4%. It also gave a normalised viability (SK-BR-3 [36]) of 86.9%.
